Data as given in ChEMBL document CHEMBL5137044, “Expansion of the S-CN-DABO scaffold to exploit the impact on inhibitory activities against the non-nucleoside HIV-1 reverse transcriptase” (Eur J Med Chem, 2022).

Assays:
[1] = test system: Human immunodeficiency virus 1; assay: Antiviral activity against drug-resistant HIV-1 K103 N mutant infected in human MT4 cells assessed as reduction in virus-induced cytopathic effect incubated for 5 days by MTT assay; format: functional, organism-based; conditions: Human immunodeficiency virus 1, K103 N mutant, MT4, 120 h
[2] = MRT(0 to t) in Sprague-Dawley rat at 10 mg/kg,po measured upto 24 hrs by LC-MS/MS analysis; format: ADME, organism-based; conditions: in vivo
[3] = Acute toxicity in healthy mouse assessed as heart damage at 1 g/Kg,IG monitored for 2 weeks by HE staining based assay; format: tissue-based; conditions: in vivo, po, 1000 mg/kg, 336 h
[4] = Cmax in Sprague-Dawley rat at 1 mg/kg,iv measured upto 24 hrs by LC-MS/MS analysis; format: ADME, organism-based; set-up: dose 1 mg/kg, time < 24 hrs, route iv; conditions: in vivo
[5] = Acute toxicity in mouse assessed as behavioral abnormalities at 1 g/Kg,IG monitored for 2 weeks; conditions: in vivo, po, 1000 mg/kg, 336 h
[6] = test system: Human immunodeficiency virus 1; assay: Antiviral activity against […] HIV-1 infected in human MT4 cells assessed as reduction in virus-induced cytopathic effect incubated for 5 days by MTT assay; format: functional, organism-based; conditions: Human immunodeficiency virus 1, MT4, 120 h
[7] = AUC (0 to infinity) in Sprague-Dawley rat at 1 mg/kg,iv measured upto 24 hrs by LC-MS/MS analysis; format: ADME, organism-based; set-up: dose 1 mg/kg, time < 24 hrs, route iv; conditions: in vivo
[8] = MRT (0 to infinity) in Sprague-Dawley rat at 1 mg/kg,iv measured upto 24 hrs by LC-MS/MS analysis; format: ADME, organism-based; conditions: in vivo
hERG = hERG (Homo sapiens, UniProt Q12809); assay: Inhibition of human ERG expressed in CHO cells at 40 uM at -80 mV holding potential by automated patch clamp method relative to control; format: toxicity, cell-based; conditions: CHO cells that express hERG
Cytochrome P450 3A4 = Cytochrome P450 3A4 (Homo sapiens, UniProt P08684); assay: Inhibition of CYP3A4T in human liver microsomes using testosterone as substrate incubated for 15 to 40 mins in presence of NADPH; format: ADME, Microsome
[9] = Tmax in Sprague-Dawley rat at 1 mg/kg,iv measured upto 24 hrs by LC-MS/MS analysis; format: ADME, organism-based; conditions: in vivo
Cytochrome P450 2C9 = Cytochrome P450 2C9 (Homo sapiens, UniProt P11712); assay: Inhibition of CYP2C9 in human liver microsomes using […] as substrate incubated for 15 to 40 mins in presence of NADPH; format: ADME, Microsome
[10] = AUC (0 to infinity) in Sprague-Dawley rat at 10 mg/kg,po measured upto 24 hrs by LC-MS/MS analysis; format: ADME, organism-based; set-up: dose 10 mg/kg, time < 24 hrs, route po; conditions: in vivo
[11] = Fold resistance, ratio of EC50 for antiviral activity against drug-resistant HIV-1 K103 N mutant infected in human MT4 cells to EC50 for antiviral activity against […] HIV-1 infected in human MT4 cells; format: functional
Cytochrome P450 2D6 = Cytochrome P450 2D6 (Homo sapiens, UniProt P10635); assay: Inhibition of CYP2D6 in human liver microsomes using dextromethorphan as substrate incubated for 15 to 40 mins in presence of NADPH; format: ADME, Microsome
[12] = test system: Human immunodeficiency virus 1; assay: Antiviral activity against drug-resistant HIV-1 Y181C mutant infected in human MT4 cells assessed as reduction in virus-induced cytopathic effect incubated for 5 days by MTT assay; format: functional, organism-based; conditions: Human immunodeficiency virus 1, Y181C mutant, MT4, 120 h
[13] = test system: Human immunodeficiency virus 1; assay: Antiviral activity against drug-resistant HIV-1 Y188L mutant infected in human MT4 cells assessed as reduction in virus-induced cytopathic effect incubated for 5 days by MTT assay; format: functional, organism-based; conditions: Human immunodeficiency virus 1, Y188L mutant, MT4, 120 h
[14] = Selectivity index, ratio of CC50 for human MT4 cells to EC50 for antiviral activity against NNRTI resistant HIV-1 infected in human MT4 cells; format: toxicity, cell-based; conditions: read-out: Ratio CC50/EC50
[15] = Acute toxicity in healthy mouse assessed as spleen damage at 1 g/Kg,IG monitored for 2 weeks by HE staining based assay; format: tissue-based; conditions: in vivo, po, 1000 mg/kg, 336 h
[16] = Acute toxicity in healthy mouse assessed as brain damage at 1 g/Kg,IG monitored for 2 weeks by HE staining based assay; format: tissue-based; conditions: in vivo, po, 1000 mg/kg, 336 h
Cytochrome P450 1A2 = molecular target: T1, Cytochrome P450 1A2 (Homo sapiens, UniProt P05177); assay: Inhibition of CYP1A2 in human liver microsomes using phenacetin as substrate incubated for 15 to 40 mins in presence of NADPH; format: ADME, Microsome
T1 sequence (P05177 whole entry): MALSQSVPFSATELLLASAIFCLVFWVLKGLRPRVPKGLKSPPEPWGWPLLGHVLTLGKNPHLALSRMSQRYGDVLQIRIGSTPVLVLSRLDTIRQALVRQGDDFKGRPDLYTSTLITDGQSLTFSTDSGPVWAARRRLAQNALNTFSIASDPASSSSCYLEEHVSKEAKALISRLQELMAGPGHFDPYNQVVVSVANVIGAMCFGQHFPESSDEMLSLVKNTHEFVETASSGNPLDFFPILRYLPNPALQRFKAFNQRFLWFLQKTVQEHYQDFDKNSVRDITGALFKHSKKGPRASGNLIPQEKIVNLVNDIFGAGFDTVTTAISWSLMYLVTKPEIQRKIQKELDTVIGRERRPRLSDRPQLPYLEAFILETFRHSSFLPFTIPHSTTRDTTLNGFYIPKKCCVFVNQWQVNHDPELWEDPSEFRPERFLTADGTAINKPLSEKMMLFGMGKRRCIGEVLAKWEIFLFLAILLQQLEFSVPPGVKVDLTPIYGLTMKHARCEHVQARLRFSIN

[17] = Fold resistance, ratio of EC50 for antiviral activity against drug-resistant HIV-1 Y181C mutant infected in human MT4 cells to EC50 for antiviral activity against […] HIV-1 infected in human MT4 cells; format: functional
[18] = Clearance in Sprague-Dawley rat at 1 mg/kg,iv measured upto 24 hrs by LC-MS/MS analysis; format: ADME, organism-based; conditions: in vivo
[19] = Fold resistance, ratio of EC50 for antiviral activity against drug-resistant HIV-1 L100I mutant infected in human MT4 cells to EC50 for antiviral activity against […] HIV-1 infected in human MT4 cells; format: functional
[20] = Cmax in Sprague-Dawley rat at 10 mg/kg,po measured upto 24 hrs by LC-MS/MS analysis; format: ADME, organism-based; set-up: dose 10 mg/kg, time < 24 hrs, route po; conditions: in vivo
[21] = C0 in Sprague-Dawley rat at 1 mg/kg,iv measured upto 24 hrs by LC-MS/MS analysis; format: ADME, organism-based; conditions: in vivo
[22] = Acute toxicity in mouse assessed as body weight change at 1 g/Kg,IG monitored for 2 weeks; conditions: in vivo, po, 1000 mg/kg, 336 h
[23] = Acute toxicity in healthy mouse assessed as lung damage at 1 g/Kg,IG monitored for 2 weeks by HE staining based assay; format: tissue-based; conditions: in vivo, po, 1000 mg/kg, 336 h
[24] = Apparent volume of distribution in Sprague-Dawley rat at 10 mg/kg,po measured upto 24 hrs by LC-MS/MS analysis; format: ADME, organism-based; conditions: in vivo
[25] = AUC (0 to t) in Sprague-Dawley rat at 10 mg/kg,po measured upto 24 hrs by LC-MS/MS analysis; format: ADME, organism-based; set-up: dose 10 mg/kg, time < 24 hrs, route po; conditions: in vivo
[26] = Cytotoxicity against human MT4 cells assessed as cell growth inhibition incubated for 5 days by MTT assay; format: toxicity, cell-based; conditions: time 5 day
[27] = Oral bioavailability in Sprague-Dawley rat at 10 mg/kg measured upto 24 hrs by LC-MS/MS analysis; format: ADME, organism-based; conditions: in vivo
[28] = Acute toxicity in healthy mouse assessed as kidney damage at 1 g/Kg,IG monitored for 2 weeks by HE staining based assay; format: tissue-based; conditions: in vivo, po, 1000 mg/kg, 336 h

Chain of Cytochrome P450 2D6 (P10635 whole entry): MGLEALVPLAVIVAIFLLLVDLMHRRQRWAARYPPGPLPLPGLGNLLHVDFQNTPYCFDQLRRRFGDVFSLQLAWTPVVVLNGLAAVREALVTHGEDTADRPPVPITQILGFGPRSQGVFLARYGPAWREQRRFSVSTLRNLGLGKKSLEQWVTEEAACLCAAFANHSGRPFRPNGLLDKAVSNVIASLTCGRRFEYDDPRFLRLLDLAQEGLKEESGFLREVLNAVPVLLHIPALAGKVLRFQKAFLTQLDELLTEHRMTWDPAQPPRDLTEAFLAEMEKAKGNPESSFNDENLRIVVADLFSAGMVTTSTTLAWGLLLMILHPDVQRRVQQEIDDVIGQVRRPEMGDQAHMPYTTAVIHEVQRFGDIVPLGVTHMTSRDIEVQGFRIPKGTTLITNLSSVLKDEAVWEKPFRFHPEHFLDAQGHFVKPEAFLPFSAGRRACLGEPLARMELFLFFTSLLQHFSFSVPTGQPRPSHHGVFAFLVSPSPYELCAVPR
Chain of Cytochrome P450 2C9 (P11712 whole entry): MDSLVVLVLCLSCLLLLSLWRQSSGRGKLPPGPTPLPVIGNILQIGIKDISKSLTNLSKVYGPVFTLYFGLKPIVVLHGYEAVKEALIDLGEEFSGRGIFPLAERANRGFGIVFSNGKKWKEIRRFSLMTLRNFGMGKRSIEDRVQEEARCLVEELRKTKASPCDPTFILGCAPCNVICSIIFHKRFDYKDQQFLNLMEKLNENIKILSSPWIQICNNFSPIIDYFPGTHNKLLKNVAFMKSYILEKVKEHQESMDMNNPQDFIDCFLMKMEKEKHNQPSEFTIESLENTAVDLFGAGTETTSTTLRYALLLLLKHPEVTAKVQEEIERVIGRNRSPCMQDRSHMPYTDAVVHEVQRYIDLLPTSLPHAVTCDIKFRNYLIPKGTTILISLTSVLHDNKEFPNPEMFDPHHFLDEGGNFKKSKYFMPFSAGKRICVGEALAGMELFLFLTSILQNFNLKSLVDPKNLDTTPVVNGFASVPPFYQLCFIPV
Chain of Cytochrome P450 3A4 (P08684 whole entry): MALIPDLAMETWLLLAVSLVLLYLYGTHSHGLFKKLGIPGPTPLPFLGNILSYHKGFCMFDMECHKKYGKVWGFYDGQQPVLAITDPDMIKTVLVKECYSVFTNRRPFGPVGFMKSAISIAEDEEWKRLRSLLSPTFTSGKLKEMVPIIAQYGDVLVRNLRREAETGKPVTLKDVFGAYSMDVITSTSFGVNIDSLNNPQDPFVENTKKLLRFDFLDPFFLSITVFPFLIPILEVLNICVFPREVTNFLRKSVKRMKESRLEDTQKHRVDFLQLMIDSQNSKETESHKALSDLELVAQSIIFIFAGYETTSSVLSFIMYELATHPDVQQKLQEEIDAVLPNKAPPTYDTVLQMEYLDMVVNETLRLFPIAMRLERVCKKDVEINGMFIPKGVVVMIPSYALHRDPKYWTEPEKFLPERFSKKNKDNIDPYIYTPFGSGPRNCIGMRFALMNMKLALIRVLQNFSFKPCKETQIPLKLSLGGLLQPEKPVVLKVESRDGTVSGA
Chain of hERG (Q12809 whole entry): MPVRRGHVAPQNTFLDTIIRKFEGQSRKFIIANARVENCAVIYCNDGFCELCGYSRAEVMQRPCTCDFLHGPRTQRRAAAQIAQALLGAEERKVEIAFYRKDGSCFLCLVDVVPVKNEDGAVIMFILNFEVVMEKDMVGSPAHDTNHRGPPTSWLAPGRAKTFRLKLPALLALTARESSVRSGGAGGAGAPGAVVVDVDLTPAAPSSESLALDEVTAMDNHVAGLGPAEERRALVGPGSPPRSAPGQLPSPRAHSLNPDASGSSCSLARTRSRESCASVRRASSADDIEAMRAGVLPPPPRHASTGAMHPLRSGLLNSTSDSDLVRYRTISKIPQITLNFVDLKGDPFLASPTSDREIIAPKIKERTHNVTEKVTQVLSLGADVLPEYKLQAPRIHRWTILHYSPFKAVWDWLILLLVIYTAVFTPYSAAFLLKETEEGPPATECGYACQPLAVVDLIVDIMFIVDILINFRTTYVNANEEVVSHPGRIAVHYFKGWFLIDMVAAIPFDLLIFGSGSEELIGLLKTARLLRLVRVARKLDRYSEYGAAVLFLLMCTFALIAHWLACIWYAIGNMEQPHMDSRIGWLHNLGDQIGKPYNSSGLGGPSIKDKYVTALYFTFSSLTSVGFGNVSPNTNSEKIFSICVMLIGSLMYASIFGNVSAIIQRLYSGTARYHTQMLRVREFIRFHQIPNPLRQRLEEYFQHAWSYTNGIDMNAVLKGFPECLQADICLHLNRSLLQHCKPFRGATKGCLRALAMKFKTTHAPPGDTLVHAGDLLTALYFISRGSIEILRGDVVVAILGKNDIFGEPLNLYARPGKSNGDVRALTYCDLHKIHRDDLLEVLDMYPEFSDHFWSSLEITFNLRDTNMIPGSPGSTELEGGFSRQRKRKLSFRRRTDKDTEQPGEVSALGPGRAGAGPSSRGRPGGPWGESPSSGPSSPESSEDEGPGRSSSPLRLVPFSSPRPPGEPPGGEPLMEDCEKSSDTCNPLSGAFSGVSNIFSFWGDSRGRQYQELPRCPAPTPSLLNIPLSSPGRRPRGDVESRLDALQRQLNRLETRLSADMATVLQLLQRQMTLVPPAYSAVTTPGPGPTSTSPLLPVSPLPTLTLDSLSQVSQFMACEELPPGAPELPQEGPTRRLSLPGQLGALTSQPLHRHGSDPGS

**Q.** With `Cc1c(C(C#N)c2c(F)cccc2F)nc(SC(C)C)[nH]c1=O` (stereo not drawn) as the molecule, how does the EC50 [1] read?
**A.** The EC50 was 3.39 µM.

**Q.** And the MRT last at 24 h [2]?
**A.** The MRT last at 24 h was 6.2 h.

**Q.** What about the Activity [3] of the same molecule?
**A.** Its Activity is “Non-Toxic”.

**Q.** And the Cmax [4]?
**A.** Its Cmax is 7620 ng/mL.

**Q.** And the Activity [5]?
**A.** The Activity was “Non-Toxic”.

**Q.** What about the EC50 [6] of the same molecule?
**A.** The EC50 was 0.0208 µM.

**Q.** And the AUC(0-inf) [7]?
**A.** The AUC(0-inf) was 8.32 µg·h/mL.

**Q.** What about the MRT inf [8] of the same molecule?
**A.** Its MRT inf is 2.41 h.

**Q.** What about the inhibition at 40 µM (hERG) of the same molecule?
**A.** Its inhibition at 40 µM is 29.4%.

**Q.** And the IC50 (Cytochrome P450 3A4)?
**A.** The IC50 was greater than 50 µM.

**Q.** What about the Tmax [9] of the same molecule?
**A.** Its Tmax is 4.8 min.

**Q.** What about the IC50 (Cytochrome P450 2C9) of the same molecule?
**A.** The IC50 was 40.4 µM.

**Q.** And the AUC(0-inf) [10]?
**A.** The AUC(0-inf) was 136 µg·h/mL.

**Q.** What about the “Ratio EC50” value [11] of the same molecule?
**A.** Its value is 163.

**Q.** What about the IC50 (Cytochrome P450 2D6) of the same molecule?
**A.** Its IC50 is greater than 50 µM.

**Q.** What about the EC50 [12] of the same molecule?
**A.** Its EC50 is 0.75 µM.

**Q.** What about the EC50 [13] of the same molecule?
**A.** The EC50 was 69 µM.

**Q.** And the selectivity ratio [14]?
**A.** Its selectivity ratio is 6560.

**Q.** What about the Activity [15] of the same molecule?
**A.** The Activity was “Non-Toxic”.

**Q.** What about the Activity [16] of the same molecule?
**A.** The Activity was “Non-Toxic”.

**Q.** What about the IC50 (Cytochrome P450 1A2) of the same molecule?
**A.** Its IC50 is greater than 50 µM.

**Q.** And the “Ratio EC50” value [17]?
**A.** The value was 36.

**Q.** And the clearance [18]?
**A.** Its clearance is 2.13 mL/min/kg.

**Q.** What about the “Ratio EC50” value [19] of the same molecule?
**A.** Its value is 50.

**Q.** What about the Cmax [20] of the same molecule?
**A.** Its Cmax is 15300 ng/mL.

**Q.** And the C0 at 24 h [21]?
**A.** Its C0 at 24 h is 9310 ng/mL.

**Q.** What about the Activity [22] of the same molecule?
**A.** The Activity was “Non-Toxic”.

**Q.** And the Activity [23]?
**A.** The Activity was “Non-Toxic”.

**Q.** And the Vz [24]?
**A.** Its Vz is 0.47537 L/kg.

**Q.** What about the AUC(0-t) at 24 h [25] of the same molecule?
**A.** Its AUC(0-t) at 24 h is 133 µg·h/mL.

**Q.** What about the CC50 at 120 h [26] of the same molecule?
**A.** Its CC50 at 120 h is 137 µM.

**Q.** And the F [27]?
**A.** Its F is 164%.

**Q.** And the Activity [28]?
**A.** The Activity was “Non-Toxic”.
